IC50 data for 50 compounds are collected here from US8841301B2, “Selective NR2B antagonists” (Bristol-Myers Squibb Company, priority 2011, dated 2014).

Structures can show the parent of a compound that is named as a salt.

hNR2B, sequence (Q13224 27-1484, other chains not shown): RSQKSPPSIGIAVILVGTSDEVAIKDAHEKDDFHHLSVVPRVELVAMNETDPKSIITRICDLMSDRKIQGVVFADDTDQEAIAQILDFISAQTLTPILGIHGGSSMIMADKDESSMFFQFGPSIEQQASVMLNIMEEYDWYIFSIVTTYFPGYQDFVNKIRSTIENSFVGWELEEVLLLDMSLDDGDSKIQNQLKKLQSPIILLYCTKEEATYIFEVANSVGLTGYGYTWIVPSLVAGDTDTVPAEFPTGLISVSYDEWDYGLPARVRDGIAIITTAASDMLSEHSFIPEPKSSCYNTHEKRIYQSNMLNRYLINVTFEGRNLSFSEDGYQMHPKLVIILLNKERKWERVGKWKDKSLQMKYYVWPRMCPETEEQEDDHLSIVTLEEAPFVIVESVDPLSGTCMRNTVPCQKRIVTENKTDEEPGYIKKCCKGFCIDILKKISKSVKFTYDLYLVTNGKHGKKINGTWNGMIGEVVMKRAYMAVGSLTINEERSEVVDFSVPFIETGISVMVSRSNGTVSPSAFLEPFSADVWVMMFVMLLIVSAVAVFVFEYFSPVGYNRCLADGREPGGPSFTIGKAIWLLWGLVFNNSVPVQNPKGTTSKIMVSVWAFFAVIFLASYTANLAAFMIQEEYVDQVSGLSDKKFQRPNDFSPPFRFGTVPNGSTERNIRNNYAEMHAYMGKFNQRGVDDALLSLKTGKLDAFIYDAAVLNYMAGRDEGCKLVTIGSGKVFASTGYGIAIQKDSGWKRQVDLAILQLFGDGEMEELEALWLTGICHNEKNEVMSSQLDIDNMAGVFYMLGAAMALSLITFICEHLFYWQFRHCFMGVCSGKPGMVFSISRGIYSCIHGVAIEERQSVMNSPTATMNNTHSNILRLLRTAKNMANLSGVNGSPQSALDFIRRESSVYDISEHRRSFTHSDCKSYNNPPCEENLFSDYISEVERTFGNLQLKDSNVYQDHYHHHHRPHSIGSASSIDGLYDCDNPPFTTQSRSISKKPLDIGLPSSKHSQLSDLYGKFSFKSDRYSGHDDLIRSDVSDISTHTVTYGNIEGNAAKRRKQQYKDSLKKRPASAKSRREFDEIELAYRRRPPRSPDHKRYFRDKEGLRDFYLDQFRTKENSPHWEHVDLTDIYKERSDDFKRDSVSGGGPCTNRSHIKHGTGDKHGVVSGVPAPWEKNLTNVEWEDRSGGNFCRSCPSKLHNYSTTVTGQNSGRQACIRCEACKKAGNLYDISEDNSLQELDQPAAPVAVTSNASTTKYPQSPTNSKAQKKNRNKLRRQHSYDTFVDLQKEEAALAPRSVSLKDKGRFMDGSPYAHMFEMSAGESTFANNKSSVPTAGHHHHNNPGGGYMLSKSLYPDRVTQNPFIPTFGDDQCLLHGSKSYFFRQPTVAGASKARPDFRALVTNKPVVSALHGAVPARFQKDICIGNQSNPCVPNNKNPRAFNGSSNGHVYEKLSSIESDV

For one assay, the target named is hNR2B (Homo sapiens, UniProt Q05586+Q13224). The assay is described as follows: Electrophysiology NMDA receptor experiments: two electrode voltage-clamp in Xenopus laevis oocytes expressing GluN1/GluN2 subunits. Format: cell-based. Particulars: oocytes voltage clamped at −40 mV; 50 μM glutamate, 30 μM glycine; read-out: Rating (hNR2B IC50). Here is the method:
Electrophysiology NMDA Receptor Experiments.
Stage V and VI oocytes were surgically removed from the ovaries of large, well-fed and healthy Xenopus laevis anesthetized with 3-amino-benzoic acid ethyl ester (3 gm/l). Clusters of isolated oocytes were incubated with 292 U/ml Worthington (Freehold, N.J.) type IV collagenase or 1.3 mg/ml collagenase (Life Technologies, Gaithersburg, Md.; 17018-029) for 2 hr in Ca^2+-free solution comprised of (in mM) 115 NaCl, 2.5 KCl, and 10 HEPES, pH 7.5, with slow agitation to remove the follicular cell layer. Oocytes were then washed in the same solution supplemented with 1.8 mM CaCl2 and maintained in Barth's solution comprised of (in mM): 88 NaCl, 1 KCl, 2.4 NaHCO3, 10 HEPES, 0.82 MgSO4, 0.33 Ca(NO3)2, and 0.91 CaCl2 and supplemented with 100 μg/ml gentamycin, 10 μg/ml streptomycin, and 10 μg/ml penicillin. Oocytes were manually defolliculated and injected within 24 hrs of isolation with 3-5 ng of human GluN1 subunit cRNA and 7-10 ng of human GluN2 cRNA subunit in a 50 nl volume, and incubated in Barth's solution at 18° C. for 2-7 d. Glass injection pipettes had tip sizes ranging from 10-20 microns, and were backfilled with mineral oil. cRNA was synthesized from linearized template cDNA for rat glutamate receptor subunits according to manufacturer specifications (Ambion).
Two electrode voltage-clamp recordings were made 2-7 days post-injection. Oocytes were placed in a dual-track plexiglass recording chamber with a single perfusion line that splits in a Y-configuration to perfuse two oocytes. Dual recordings were made at room temperature (23° C.) using two Warner OC725B two-electrode voltage clamp amplifiers, arranged as recommended by the manufacturer. Glass microelectrodes (1-10 Megaohms) were filled with 300 mM KCl (voltage electrode) or 3 M KCl (current electrode). The bath clamps communicated across silver chloride wires placed into each side of the recording chamber, both of which were assumed to be at a reference potential of 0 mV. Oocytes were perfused with a solution comprised of (in mM) 90 NaCl, 1 KCl, 10 HEPES, […] and 0.5 BaCl2; pH 7.4, adjusted by addition of NaOH. Oocytes were recorded under voltage clamp at −40 mV. Final concentrations for glutamate and glycine were 50 μM and 30 μM, respectively. Concentration-response curves for experimental compounds were obtained by applying in successive fashion maximal glutamate/glycine, followed by glutamate/glycine plus variable concentrations of experimental compounds. Dose response curves consisting of four to eight concentrations were obtained in this manner. The baseline leak current at −40 mV was measured before and after recording, and the full recording linearly corrected for any change in leak current. The level of inhibition by applied experimental compounds was expressed as a percent of the initial glutamate response, and averaged together across oocytes from multiple experiments. Results were pooled, and the average percent responses at antagonist concentrations were fit by the equation, Percent Response=(100−minimum)/(1+([conc]/IC50)^nH)+minimum where minimum is the residual percent response in saturating concentration of the experimental compounds, IC50 is the concentration of antagonist that causes half of the achievable inhibition, and nH is a slope factor describing steepness of the inhibition curve. […]
For NMDA receptor subtype selectivity experiments human GluN1/GluN2A, GluN1/GluN2C, and GluN1/GluN2D cRNAs were expressed in Xenopus laevis as described above. Here, 10 μM concentrations of the antagonist was perfused with 50 μM glutamate and 30 μM glycine onto the oocyte for two min and the remaining current in the presence of the antagonist was compared to the maximal current obtained with 50 μM glutamate and 30 μM glycine alone (defined as 100%). When IC50 determinations were made against other NMDA receptor subtypes the protocol as described above was followed. […]
Background: In two-electrode clamp one electrode senses voltage and the other passes current.
Broadly, the IC50 is the concentration that inhibits the measured activity by half. Consider `FC(F)Oc1ccc(Nc2ncc(C3CC3c3cccc4[nH]ncc34)cn2)cc1` (centres unmarked) [Example 117], for which the IC50 was above 10000 nM. On to `O=C1CCc2cc(OCc3ccc(Nc4ccc(OC(F)(F)F)cc4)nc3)cc(F)c2N1` [Example 6], for which the IC50 is 1000 to 10000 nM. On to `Cc1ccc(Nc2ncc(COc3ccc4[nH]c(=O)ccc4c3)cn2)cc1Cl` [Example 42], for which the IC50 was below 200 nM. The same measure, in the same setting: the same measure for `Cc1ccc(Nc2ncc(COc3ccc4[nH]c(=O)ccc4c3)cn2)cc1` [Example 25]: below 200 nM. Still for that read-out and setting: then `FC(F)Oc1ccc(Nc2ncc(COc3cnc4[nH]ccc4c3)cn2)cc1Cl` [Example 90], with below 200 nM; and `Cc1cc(Nc2ncc(CCc3ccc4c(c3)COC(=O)N4)cn2)ccc1OC(F)F` [Example 145], with below 200 nM. Still for that read-out and setting: the same measure for `O=C1Nc2ccc(OCc3cnc(Nc4ccc(OC(F)(F)F)cc4)nc3)cc2CO1` [Example 61]: below 200 nM; for `COc1ccc(Nc2ncc(COc3ccc4[nH]c(=O)ccc4c3)cn2)cc1C` [Example 46]: below 200 nM; for `FC(F)Oc1ccc(Nc2ncc(CCCNc3ncnc4[nH]ncc34)cn2)cc1` [Example 115]: above 10000 nM. Take `Fc1cc(Nc2ncc(CCc3cnc4[nH]ncc4c3)cn2)ccc1OC(F)F` [Example 152]: the IC50 was below 200 nM. As for `O=c1ccc2cc(OCc3cc(NCc4ccc(Cl)c(Cl)c4)ncn3)ccc2[nH]1` [Example 97], the IC50 lay within 1000 to 10000 nM.

On to `CCc1ccc(Nc2ncc(CCc3ccc4c(c3)COC(=O)N4)cn2)cc1F` [Example 144], for which the IC50 is below 200 nM. The same measure, in the same setting: the same measure for `O=C1Nc2ccc(OCc3cnc(Nc4ccc(OC(F)F)c(Cl)c4)nc3)cc2CO1` [Example 77]: below 200 nM; for `O=c1ccc2cc(OCc3ccc(NCc4ccc(Cl)cc4)nc3)ccc2[nH]1` [Example 1, 6-((6-(4-chlorobenzylamino)pyridin-3-yl)methoxy)quinolin-2(1H)-one]: below 200 nM; for `CCc1ccc(Nc2ncc(CCc3ccc4[nH]ncc4c3)cn2)cc1Cl` [Example 134]: 1000 to 10000 nM.

Regarding `FC(F)(F)Oc1ccc(Nc2ncc(COc3ccc4[nH]ncc4c3)cn2)cc1` [Example 56], the IC50 is below 200 nM. Same read-out and setting: then `O=c1ccc2cc(OCc3cnc(Nc4ccc(OC(F)F)c(F)c4)nc3)ccc2[nH]1` [Example 37], with below 200 nM. On the same count and under the same terms, then `CCc1ccc(Nc2ncc(CCc3ccc4[nH]ncc4c3)cn2)cc1` [Example 127], with 201 to 1000 nM.

Turning to `O=c1ccc2cc(OCc3cnc(Nc4ccc(Cl)c(Cl)c4)nc3)ccc2[nH]1` [Example 20], the IC50 was below 200 nM. With `FC(F)Oc1ccc(Nc2ncc(COc3cn[nH]c3)cn2)cc1` [Example 63], the IC50 was below 200 nM. The same measure, in the same setting: the same measure for `Cc1cc(Nc2ncc(COc3ccc(Nc4nccs4)cc3)cn2)ccc1OC(F)F` [Example 87]: below 200 nM.

As to `Cc1cc(Nc2ncc(COc3ccc4[nH]c(=O)ccc4c3)cn2)ccc1OC(F)F` [Example 38], the IC50 was below 200 nM.

Consider `FC(F)Oc1ccc(Nc2ncc(CCCNc3ncccn3)cn2)cc1` [Example 114], for which the IC50 is above 10000 nM. On the same count and under the same terms, then `Fc1cc(Nc2ncc(CCc3ccc4[nH]ncc4c3)cn2)ccc1OC(F)F` [Example 128], with below 200 nM; and `CN(C)c1nc(Nc2ccc(OC(F)F)cc2)ncc1COc1ccc2[nH]c(=O)ccc2c1` [Example 55], with below 200 nM; and `FC(F)Oc1ccc(Nc2ncc(COc3ccc4[nH]nnc4c3)cn2)cc1` [Example 69], with below 200 nM.

In the case of `O=c1ccc2cc(OCc3ccc(NCc4ccc(Cl)c(Cl)c4)nc3)ccc2[nH]1` [Example 2, 6-((6-(3,4-dichlorobenzylamino)pyridin-3-yl)methoxy)quinolin-2(1H)-one], the IC50 was in the range of 1000 to 10000 nM. Same read-out and setting: then `O=c1ccc2cc(OCc3cnc(Nc4ccc(OC(F)F)cc4)nc3)ccc2[nH]1` [Example 22], with below 200 nM. In the case of `Cc1cc(Nc2ncc(COc3cc4ccc(=O)[nH]c4cc3F)cn2)ccc1OC(F)F` [Example 78], the half-maximal inhibitory concentration (IC50) was below 200 nM. Same read-out and setting: then `Cc1cc(Nc2ncc(CCc3cnc4[nH]ncc4c3)cn2)ccc1OC(F)F` [Example 153], with below 200 nM; and `CCc1ccc(Nc2ncc(CCc3ccc4[nH]c(=O)ccc4c3)cn2)cc1Cl` [Example 135], with 1000 to 10000 nM. The same measure, in the same setting: the same measure for `O=c1ccc2cc(OCc3ccc(NCc4ccc(OC(F)F)cc4)nc3)ccc2[nH]1` [Example 4]: above 10000 nM; for `Cc1nc(Nc2ccc(Cl)cc2)ncc1COc1ccc2[nH]c(=O)ccc2c1` [Example 51]: below 200 nM; for `CS(=O)(=O)c1ccc(Nc2ncc(COc3ccc4[nH]c(=O)ccc4c3)cn2)cc1` [Example 40]: below 200 nM. As for `Oc1ccc(OCc2cnc(Nc3ccc(OC(F)F)cc3)nc2)nn1` [Example 59], the IC50 is below 200 nM. As for `COc1cc(Nc2ncc(COc3ccc4[nH]c(=O)ccc4c3)cn2)ccc1F` [Example 33], the IC50 lay within 1000 to 10000 nM. Same read-out and setting: the same measure for `Cc1ccc(Nc2ncc(CCc3ccc4c(c3)COC(=O)N4)cn2)cc1F` [Example 149]: below 200 nM.

As for `COc1ccc(Nc2ncc(CCc3ccc4[nH]c(=O)ccc4c3)cn2)cc1C` [Example 132], the IC50 was below 200 nM.

In the case of `FC1(F)Oc2ccc(Nc3ncc(CCc4ccc5[nH]ncc5c4)cn3)cc2O1` [Example 133], the IC50 is 1000 to 10000 nM. Still for that read-out and setting: then `FC(F)Oc1ccc(Nc2ncc(CCc3cnc4[nH]ncc4c3)cn2)cc1` [Example 154], with below 200 nM; and `COc1ccc(Nc2ncc(COc3ccc4[nH]c(=O)ccc4c3)cn2)cc1F` [Example 29], with below 200 nM; and `FC(F)Oc1ccc(Nc2ncc(CCc3ccc4cn[nH]c4c3)cn2)cc1` [Example 113], with above 10000 nM. Still for that read-out and setting: then `CCc1ccc(Nc2ncc(CCc3ccc4[nH]ncc4c3)cn2)cc1F` [Example 125], with 1000 to 10000 nM; and `O=c1ccc2cc(OCc3ccc(Nc4ccc(OC(F)(F)F)cc4)nc3)ccc2[nH]1` [Example 9], with below 200 nM.

Staying with this assay, now noted: oocytes voltage clamped at −40 mV; 50 μM glutamate, 30 μM glycine; read-out: hNR2B IC50.
`Cc1ccc(Nc2ncc(COc3ccc4[nH]c(=O)ccc4c3)cn2)cc1` [Example 25]: the 50% inhibitory concentration (IC50) was 97 nM. On the same count and under the same terms, then `O=c1ccc2cc(OCc3ccnc(Nc4ccc(Cl)cc4)n3)ccc2[nH]1` [Example 93, 6-((2-(4-chlorophenylamino)pyrimidin-4-yl)methoxy)quinolin-2(1H)-one], with 1250 nM; and `O=c1ccc2cc(OCc3cc(Nc4ccc(Cl)c(Cl)c4)ncn3)ccc2[nH]1` [Example 95, 6-((6-(3,4-dichlorophenylamino)pyrimidin-4-yl)methoxy)quinolin-2(1H)-one trifluoroacetate], with 36 nM; and `O=c1ccc2cc(OCc3ccc(NCc4ccc(Cl)cc4)nc3)ccc2[nH]1` [Example 1, 6-((6-(4-chlorobenzylamino)pyridin-3-yl)methoxy)quinolin-2(1H)-one], with 87 nM. Still for that read-out and setting: the same measure for `O=c1ccc2cc(OCc3ccc(NCc4ccc(Cl)c(Cl)c4)nc3)ccc2[nH]1` [Example 2, 6-((6-(3,4-dichlorobenzylamino)pyridin-3-yl)methoxy)quinolin-2(1H)-one]: above 3000 nM; for `O=c1ccc2cc(Oc3ccc(NCc4ccc(OC(F)(F)F)cc4)nn3)ccc2[nH]1` [Example 102, 6-(6-(4-(trifluoromethoxy)benzylamino)pyridazin-3-yloxy)quinolin-2(1H)-one]: 4600 nM; for `O=c1ccc2cc(OCc3cnc(Nc4ccc(Cl)cc4)nc3)ccc2[nH]1` [Example 14, 6-((2-(4-chlorophenylamino)pyrimidin-5-yl)methoxy)quinolin-2(1H)-one]: 64 nM. Same read-out and setting: the same measure for `Nc1ncc(OCc2cnc(Nc3ccc(OC(F)F)cc3)nc2)cn1` [Example 17, 5-((2-aminopyrimidin-5-yloxy)methyl)-N-(4-(difluoromethoxy)phenyl)pyrimidin-2-amine]: above 1000 nM; for `O=c1ccc2cc(OCc3cnc(Nc4ccc(Cl)c(Cl)c4)cn3)ccc2[nH]1` [Example 98, 6-((5-(3,4-dichlorophenylamino)pyrazin-2-yl)methoxy)quinolin-2(1H)-one]: above 3000 nM.
